In general, IC50 refers to the concentration that gives 50% inhibition.

These results are taken from US10669284B2, “Fused thiazolopyrimidine derivatives as MNKS inhibitors” (LIFEARC, priority 2015, dated 2020).

Test [1] has as its system eIF4E phosphorylation in normal mouse tissues and xenografted tumors. Particulars: after oral administration; cited from earlier work.
Another test relates to HCT116 xenograft. The following applies: HCT116 xenograft models; cited from earlier work.
In test [2] the test system is B16 melanoma lung metastases. The following applies: cited from earlier work.
For test [3], the system named is monocytic cell line THP-1. The following applies: cited from earlier work.
A further test has as its system keratinocytes. Particulars: cited from earlier work.
The next test has as its target T1, Full-length human MNK1 (Homo sapiens, UniProt Q9BUB5, T385D).
T1 construct: GST (N); purchased Carna Biosciences 02-145; host or cells: baculovirus expression system
The experiment in a line: MNK1 biochemical IC50 assay (Caliper Mobility Shift Assay). Particulars: read-out: P(IC50) MNK1 (converted).

Another test has as its target T2, Full-length human MNK2 (Homo sapiens, UniProt Q9HBH9, T379D).
T2 construct: GST (N); purchased Carna Biosciences 02-146; host or cells: baculovirus expression system
The test is described as follows: MNK2 biochemical IC50 assay (Caliper Mobility Shift Assay). The following applies: read-out: P(IC50) MNK2 (converted).

The subject of test [4] is phosphorylation of eIF4E at ser209 in MV4.11 cell line. The test is described as follows: MNK cellular activity phospho-eIF4E detection assay (Alphascreen Surefire). Type of test: cell-based. Particulars: Homo sapiens; MV4.11 cell line, phospho-eIF4E (ser209) Alphascreen Surefire; read-out: P(IC50) elF4E (converted). The method in brief: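 AlphaScreen SureFire sandwich-immunoassay readout of phospho-eIF4E Ser209 in lysed MV4.11 cells; acceptor then donor beads, each 1.5 hr at room temperature. Signal normalised to untreated DMSO-only controls; duplicate curves, values averaged over at least 2 independent experiments.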

T2 sequence (Q9HBH9 whole entry T379D): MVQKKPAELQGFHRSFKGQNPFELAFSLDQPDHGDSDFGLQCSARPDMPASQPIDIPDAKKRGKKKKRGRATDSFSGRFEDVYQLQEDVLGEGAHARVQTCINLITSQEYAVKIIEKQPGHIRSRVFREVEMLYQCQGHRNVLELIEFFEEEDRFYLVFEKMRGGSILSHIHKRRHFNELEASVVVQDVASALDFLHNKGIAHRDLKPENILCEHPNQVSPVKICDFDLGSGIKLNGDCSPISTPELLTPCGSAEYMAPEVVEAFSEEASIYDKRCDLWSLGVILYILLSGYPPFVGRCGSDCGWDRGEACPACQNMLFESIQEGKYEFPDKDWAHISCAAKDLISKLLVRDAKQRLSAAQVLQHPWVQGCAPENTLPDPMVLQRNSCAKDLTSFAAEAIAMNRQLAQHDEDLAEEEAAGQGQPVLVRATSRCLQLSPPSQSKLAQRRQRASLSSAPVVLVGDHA
T1 sequence (Q9BUB5 1-424 isoform Q9BUB5-2 T344D): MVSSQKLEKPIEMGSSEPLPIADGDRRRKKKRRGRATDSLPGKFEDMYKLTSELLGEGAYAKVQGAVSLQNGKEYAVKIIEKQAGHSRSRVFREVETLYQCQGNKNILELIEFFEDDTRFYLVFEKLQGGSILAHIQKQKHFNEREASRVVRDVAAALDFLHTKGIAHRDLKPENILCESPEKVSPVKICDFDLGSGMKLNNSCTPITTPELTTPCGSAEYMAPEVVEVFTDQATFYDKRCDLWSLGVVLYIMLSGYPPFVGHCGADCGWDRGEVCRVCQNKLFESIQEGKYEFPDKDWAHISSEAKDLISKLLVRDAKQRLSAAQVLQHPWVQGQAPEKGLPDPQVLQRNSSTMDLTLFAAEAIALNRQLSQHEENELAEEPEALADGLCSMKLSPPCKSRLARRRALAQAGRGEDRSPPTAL

Consider `CC(=O)C1=C(O)C=C2Oc3c(C(N)=O)c(O)cc(O)c3[C@]2(C)C1=O` [cercosporamide], for which the “time to effective block of eIF4E phosphorylation” value in test [1] was ≤ 30 min. Moreover, the tumor growth result with HCT116 xenograft is given as “reducing tumor growth”. For the same compound, in test [2], the “outgrowth of lung metastases” value is “suppressing the outgrowth”.

In the case of `Nc1ncnc2n[nH]c(Nc3ccc(F)cc3)c12` [CGP57380], in test [3], the “block of release of IL-1β and IL-8 induced by Shiga toxin” value is 73-96%. In addition, in the test with keratinocytes, the TNF-production result is recorded as “reduced TNF-production”; the “expression of IL-1β and IL-6” value is “decreased expression”.

Consider `CC1(CCO)CN(c2ncnc3sc(C(=O)NC4CCOCC4)nc23)c2ccccc21` (stereo not drawn) [Example 113, 7-[3-(2-hydroxyethyl)-3-methyl-indolin-1-yl]-N-tetrahydropyran-4-yl-thiazolo[5,4-d]pyrimidine-2-carboxamide], for which the IC50 (at Full-length human MNK1; on Full-length human MNK2; in test [4]) was 0.0398 µM in each case.

Take `O=C(NC1CCNCC1)c1nc2c(N3CCc4cc(F)ccc43)ncnc2s1` [Example 78, 7-(5-fluoroindolin-1-yl)-N-(4-piperidyl)thiazolo[5,4-d]pyrimidine-2-carboxamide]: the IC50 was 0.002 µM on Full-length human MNK1, 0.002 µM on Full-length human MNK2 and 0.00316 µM in test [4].

Regarding `Fc1ccc2c(c1)CCN2c1ncnc2sc(N3CCOCC3)nc12` [Example 87, 4-[7-(5-fluoroindolin-1-yl)thiazolo[5,4-d]pyrimidin-2-yl]morpholine], the results for the IC50 (on Full-length human MNK1; at Full-length human MNK2; in test [4]) were 0.126 µM, 0.0794 µM and 0.2 µM, respectively.

With `CN(C)CCCOc1nc2c(N3CCc4cc(F)ccc43)ncnc2s1` [Example 89, 3-((7-(5-Fluoroindolin-1-yl)thiazolo[5,4-d]pyrimidin-2-yl)oxy)-N,N-dimethylpropan-1-amine], the IC50 at Full-length human MNK1 is 0.0398 µM; at Full-length human MNK2, 0.0631 µM; in test [4], 0.2 µM.

As for `CC(C)Oc1cc(F)ccc1Nc1ncnc2sc(C(=O)NCCC(=O)O)nc12` [Example 14, 3-[[7-(4-fluoro-2-isopropoxy-anilino)thiazolo[5,4-d]pyrimidine-2-carbonyl]amino]propanoic acid], the values for the IC50 (at Full-length human MNK1; at Full-length human MNK2; in test [4]) were 0.158 µM, 0.0794 µM and 0.398 µM, respectively.

Regarding `O=C(NC1CCOCC1)c1nc2c(N3CC(CCN4CCOCC4)c4cc(F)ccc43)ncnc2s1` (stereo not drawn) [Example 151, 7-[5-fluoro-3-(2-morpholinoethyl)indolin-1-yl]-N-tetrahydropyran-4-yl-thiazolo[5,4-d]pyrimidine-2-carboxamide], the figures for the IC50 (on Full-length human MNK1; on Full-length human MNK2; in test [4]) were 0.1 µM, 0.1 µM and 0.0316 µM, respectively.

Take `CC(C)Oc1cc(F)ccc1Nc1ncnc2sc(C(=O)N3CC4(CNC4)C3)nc12` [Example 7, 2,6-diazaspiro[3.3]heptan-2-yl-[7-(4-fluoro-2-isopropoxy-anilino)thiazolo[5,4-d]pyrimidin-2-yl]methanone]: the figures for the IC50 (at Full-length human MNK1; at Full-length human MNK2; in test [4]) were 0.251 µM, 0.251 µM and 0.316 µM, respectively.

Turning to `CN(C)CCCNC(=O)c1nc2c(Nc3ccc(F)cc3O[C@H]3CCCOC3)ncnc2s1` [Example 17, N-[3-(dimethylamino)propyl]-7-[4-fluoro-2-[(3S)-tetrahydropyran-3-yl]oxy-anilino]thiazolo[5,4-d]pyrimidine-2-carboxamide], the IC50 was 0.126 µM at Full-length human MNK1, 0.1 µM at Full-length human MNK2 and 0.1 µM in test [4].

Consider `O=C(NCC1CCNCC1)c1nc2c(Nc3ccccc3-c3ccco3)ncnc2s1` [Example 62, 7-[2-(2-furyl)anilino]-N-(4-piperidylmethyl)thiazolo[5,4-d]pyrimidine-2-carboxamide], for which the IC50 was 0.631 µM on Full-length human MNK1, 0.316 µM at Full-length human MNK2 and 0.316 µM in test [4].

On to `O=C(NC1CCOCC1)c1nc2c(N3CCc4cc(Cl)cc(F)c43)ncnc2s1` [Example 91, 7-(5-Chloro-7-fluoro-indolin-1-yl)-N-tetrahydropyran-4-yl-thiazolo[5,4-d]pyrimidine-2-carboxamide], for which the IC50 is 0.0631 µM on Full-length human MNK1, 0.0501 µM on Full-length human MNK2 and 0.1 µM in test [4].

Take `CN(C)Cc1cn(-c2ncnc3sc(C(=O)NC4CCOCC4)nc23)c2ccccc12` [Example 121, 7-[3-[(dimethylamino)methyl]indol-1-yl]-N-tetrahydropyran-4-yl-thiazolo[5,4-d]pyrimidine-2-carboxamide]: the IC50 on Full-length human MNK1 is 0.0398 µM; on Full-length human MNK2, 0.0794 µM; in test [4], 0.0794 µM.

Take `O=C(NCC1CCNCC1)c1nc2c(Nc3ccc(F)cc3O[C@H]3CCOC3)ncnc2s1` [Example 54, 7-[4-fluoro-2-[(3S)-tetrahydrofuran-3-yl]oxy-anilino]-N-(4-piperidylmethyl)thiazolo[5,4-d]pyrimidine-2-carboxamide]: the figures for the IC50 (on Full-length human MNK1; at Full-length human MNK2; in test [4]) were 0.0794 µM, 0.1 µM and 0.2 µM, respectively.

For the compound `O=C(NCCN1CCNCC1)c1nc2c(N3CCc4cc(F)ccc43)ncnc2s1` [Example 79, 7-(5-fluoroindolin-1-yl)-N-(2-piperazin-1-ylethyl)thiazolo[5,4-d]pyrimidine-2-carboxamide], the IC50 was 0.00316 µM at Full-length human MNK1, 0.00316 µM on Full-length human MNK2 and 0.01 µM in test [4].

On to `CNCCCNC(=O)c1nc2c(N3c4ccccc4C[C@@H]3C)ncnc2s1` [Example 131, N-[3-(methylamino)propyl]-7-[(2S)-2-methylindolin-1-yl]thiazolo[5,4-d]pyrimidine-2-carboxamide], for which the IC50 at Full-length human MNK1 was 0.1 µM; on Full-length human MNK2, 0.0316 µM; in test [4], 0.0398 µM.

Consider `O=C(NC1COC1)c1nc2c(N3CCc4ccccc43)ncnc2s1` [Example 100, 7-indolin-1-yl-N-(oxetan-3-yl)thiazolo[5,4-d]pyrimidine-2-carboxamide], for which the results for the IC50 (on Full-length human MNK1; at Full-length human MNK2; in test [4]) were 0.0251 µM, 0.02 µM and 0.0158 µM, respectively.

Regarding `C[C@@H]1Cc2ccccc2N1c1ncnc2sc(C(=O)NC3CCNCC3)nc12` [Example 129, 7-[(2R)-2-methylindolin-1-yl]-N-(4-piperidyl) thiazolo[5,4-d]pyrimidine-2-carboxamide], the IC50 at Full-length human MNK1 is 0.0158 µM; at Full-length human MNK2 it was 0.0158 µM; in test [4], 0.0794 µM.

For the compound `CN1CCN(c2nc3c(N4CCc5cc(F)ccc54)ncnc3s2)CC1` [Example 88, 7-(5-fluoroindolin-1-yl)-2-(4-methylpiperazin-1-yl)thiazolo[5,4-d]pyrimidine], the IC50 at Full-length human MNK1 is 0.0794 µM; at Full-length human MNK2, 0.0501 µM; in test [4], 0.251 µM.

Consider `CN1CCC2(CC1)CN(c1ncnc3sc(C(=O)NC4CCOCC4)nc13)c1ccccc12` [Example 40, 7-(1′-Methylspiro[indole-3,4′-piperidin]-1(2H)-yl)-N-(tetrahydro-2H-pyran-4-yl)[1,3]thiazolo[5,4-d]pyrimidine-2-carboxamide], for which the results for the IC50 (at Full-length human MNK1; at Full-length human MNK2; in test [4]) were 0.0126 µM, 0.02 µM and 0.0501 µM, respectively.

Consider `O=C(NC1CCOCC1)c1nc2c(N3CC(CO)c4ccccc43)ncnc2s1` (stereo not drawn) [Example 109, 7-[3-(hydroxymethyl)indolin-1-yl]-N-tetrahydropyran-4-yl-thiazolo[5,4-d]pyrimidine-2-carboxamide], for which the IC50 is 0.0126 µM on Full-length human MNK1, 0.00794 µM on Full-length human MNK2 and 0.0126 µM in test [4].

Turning to `O=C(NC1CC1)c1nc2c(N3CCc4ccccc43)ncnc2s1` [Example 99, N-cyclopropyl-7-indolin-1-yl-thiazolo[5,4-d]pyrimidine-2-carboxamide], the half-inhibitory concentration (IC50) is 0.0126 µM at Full-length human MNK1, 0.00501 µM on Full-length human MNK2 and 0.0158 µM in test [4].

Consider `CNCCC1CN(c2ncnc3sc(C(=O)NC4CCOCC4)nc23)c2ccccc21` (stereo not drawn) [Example 115, 7-[3-[2-(Methylamino)ethyl]indolin-1-yl]-N-tetrahydropyran-4-yl-thiazolo[5,4-d]pyrimidine-2-carboxamide], for which the IC50 on Full-length human MNK1 is 0.0316 µM; on Full-length human MNK2 it was 0.0158 µM; in test [4] it was 0.126 µM.
